This passage reports IC50 and EC50 results from patent US20140275711A1, “1-(Arylmethyl)-5,6,7,8-tetrahydroquinazolline-2,4-diones and Analogs and the Use Thereof” (Impact Therapeutics, Inc., priority 2011, published 2014).

Read-outs that look alike come from different tables or passages of the source.

Experiment [1] concerns SW620 human colorectal cancer cells. The experiment is described as follows: Potentiation of the growth inhibiting activity of MMS, MTT based cell viability assay. The following applies: read-out: Compounds potentiate the growth inhibiting activity of MMS (IC50).
Protocol: The synergistic potentiation effect of PARP inhibitors on the growth inhibiting activity of DNA damaging anticancer drugs such as methyl methanesulphonate (MIMS) were measured with SW620 human colorectal cancer cells (Shanghai Cancer Institute) using a MTT based cell viability assay. SW620 cells were grown and maintained in RPMI1640 (Gibco) medium supplemented with 10% FBS (Hyclone). In the first day of experiment, 4000 cells were seeded to each well of a 96-well cell culture plate and incubated at 37° C. and 5% CO2 in a cell culture incubator overnight. In the next day, the cell culture medium was removed. […] The serial dilutions of the reference compounds and the compounds to be tested were made with a 1:3 and 1:10 fashion in DMSO. The 10-fold concentrated solutions of these compounds were made by mixing 10 μl of the serial dilutions in DMSO with 90 μl fresh medium. The final concentration of DMSO in the medium was 1%. The cells were incubated at 37° C. in 5% CO2 cell culture incubator for additional 5 days (120 hours). Afterwards, the 96-well cell culture plate was taken out and 20 μl of MTT solution was added to each well and incubated at 37° C. for 4 h. The medium was removed and 100 μl DMSO was added to each well. The 96-well cell culture plates were shaked adequately for 10 min and readed in a Varioskan Flash plate reader (Thermo Fisher Scientific) at 520 and 690 nm. The data were analyzed by Prism 5 software (GraphPad). The obtained 520 nm absorbance readings substracting corresponding 690 nm reading were analyzed and plotted against the Log scale of the compound concentrations.
The test system of experiment [2] is Human breast cancer cell line T47D. Kind of experiment: Potentiation of MMS induced apoptosis, cell based caspase-3 activity assay.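 Also: Caspase-3 activity in cell lysates measured by fluorescence (RFU), EC50 fitted from sigmoidal curve of signal versus log compound concentration in presence of MMS.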 Conditions: read-out: Compounds potentiate the apoptosis inducing activity of MMS (EC50).
Protocol: Human breast cancer cell line T47D (Nanjing KeyGEN Biotech. CO., LTD.) was used to determine the potentiation effect of PARP-1 inhibitors on the apoptosis inducing activity of DNA damaging anticancer drugs such as MMS. Intracellular caspase-3 activity was used to measure cell apoptosis. Briefly, T47D cells were grown in DMEM/F12 cell culture medium (Hyclone) supplemented with 0.2 U/ml insulin (Genview) and 10% FBS (Hyclone). A day before experiment, 20000 of T47D cells were seeded to each well of a 96-well cell culture plate and maintained at 37° C. and 5% CO2 in a cell culture incubator overnight. On the day of experiment, cell culture medium was removed. […] The serial dilutions of the compounds to be tested and the reference compounds were made in a 1:3 and 1:10 fashion in DMSO. The 10-fold compound solutions were made by mixing 10 μl DMSO serial dilution solutions with 90 μl fresh growth medium. Twenty four hours later, the cells in the 96-well plates were centrifuged at 1000 g for 5 min and the supernatants were removed. 50 μl lysis buffer (10 mM Tris, pH 7.5, 0.1M NaCl, 1 mM EDTA, 0.01% Triton X-100) was added to each well and the plates were shaked horizontally for 30 min at 4° C. After centrifugation at 1000 g at 4° C. for 10 min, 20 μl of supernatant was transferred from each well to a corresponding well in a 384-well black plate. […] The plates were shaked to uniformly mix the wells and incubated at 37° C. for 3 h. […] The caspase-3 activity induced by the compounds was expressed as a relative fluorescence unit (RFU). The obtained fluorescence readings were analyzed using a commercial graphic software (GraphPad Prism 5) and plotted against the Log value of the compound concentrations. The EC50 values were obtained by fitting the data points with the equation of Y (fluorescence reading)=minimal fluorescence reading+(maximal fluorescence reading−minimal fluorescence reading)/(1+10̂(LogEC50−LogC)), where C is the concentration of the testing compound. The EC50 values were obtained by fitting the data points with S-shaped dose response curve equation (GraphPad Software, Inc).
The subject of experiment [3] is BRCA-2 deficient CAPAN-1 human pancreatic cancer cells. Kind of experiment: Cell growth inhibition of BRCA-2 deficient CAPAN-1 cells, MTT based cell viability assay. The following applies: read-out: Growth inhibition of CAPAN-1 cells by compounds (IC50).
Protocol: BRCA-2 deficient CAPAN-1 human pancreatic cancer cells were used to test the growth inhibiting activity of substituted 1-(arylmethyl)-5,6,7,8-tetrahydroquinazoline-2,4(1H,3H)-diones. Briefly, CAPAN-1 cells are grown and maintained in IMEM medium supplemented with 20% FBS. The assay takes 10 days to finish. On day 1, 6000 CAPAN-1 cells are seeded to each well of a 96-well plate. The cells are incubated at 37° C. in a CO2 cell culture incubator overnight. […] Ten-fold compound solutions were made by mixing 10 μl DMSO serial dilution solutions with 90 μl fresh growth medium. The cell culture medium was removed and 180 μl fresh media with FBS and 20 μl of compound solutions were added to each well. The final concentration of DMSO was 1%. Cells were then returned to the CO2 cell culture incubator and incubated at 37° C. for two days (day 3 and day 4). On day 5, the same procedure as what was done on day 2 was repeated. Cell culture medium was removed and fresh medium containing serial dilutions of compounds or reference compounds were added. Cells were returned to the CO2 cell culture incubator and incubated for two more days. On day 8, same procedure was repeated again and fresh medium containing the testing compounds or reference compounds were added and incubated for an additional 2 days. On day 10, 20 μl of MTT reagent (5 mg/ml) was added to each well of the cell culture plate and incubated for 4 h. The cell culture media was removed and 100 μl DMSO was added to each well. The 96-well cell culture plates were shaked horizontally for 10 min and readed in a Varioskan Flash plate reader (Thermo Fisher Scientific) at 520 and 690 nm. The obtained 520 nm absorbance readings substracting corresponding 690 nm reading were analyzed using a commercial graphic software (GraphPad Prism 5) and plotted against the Log scale of the compound concentrations.
In a further experiment the target is T1, PARP-1 enzyme (Homo sapiens, UniProt P09874).
T1 construct: purchased Trevigen, Inc. 4676-096-K
T1 sequence (P09874 whole entry): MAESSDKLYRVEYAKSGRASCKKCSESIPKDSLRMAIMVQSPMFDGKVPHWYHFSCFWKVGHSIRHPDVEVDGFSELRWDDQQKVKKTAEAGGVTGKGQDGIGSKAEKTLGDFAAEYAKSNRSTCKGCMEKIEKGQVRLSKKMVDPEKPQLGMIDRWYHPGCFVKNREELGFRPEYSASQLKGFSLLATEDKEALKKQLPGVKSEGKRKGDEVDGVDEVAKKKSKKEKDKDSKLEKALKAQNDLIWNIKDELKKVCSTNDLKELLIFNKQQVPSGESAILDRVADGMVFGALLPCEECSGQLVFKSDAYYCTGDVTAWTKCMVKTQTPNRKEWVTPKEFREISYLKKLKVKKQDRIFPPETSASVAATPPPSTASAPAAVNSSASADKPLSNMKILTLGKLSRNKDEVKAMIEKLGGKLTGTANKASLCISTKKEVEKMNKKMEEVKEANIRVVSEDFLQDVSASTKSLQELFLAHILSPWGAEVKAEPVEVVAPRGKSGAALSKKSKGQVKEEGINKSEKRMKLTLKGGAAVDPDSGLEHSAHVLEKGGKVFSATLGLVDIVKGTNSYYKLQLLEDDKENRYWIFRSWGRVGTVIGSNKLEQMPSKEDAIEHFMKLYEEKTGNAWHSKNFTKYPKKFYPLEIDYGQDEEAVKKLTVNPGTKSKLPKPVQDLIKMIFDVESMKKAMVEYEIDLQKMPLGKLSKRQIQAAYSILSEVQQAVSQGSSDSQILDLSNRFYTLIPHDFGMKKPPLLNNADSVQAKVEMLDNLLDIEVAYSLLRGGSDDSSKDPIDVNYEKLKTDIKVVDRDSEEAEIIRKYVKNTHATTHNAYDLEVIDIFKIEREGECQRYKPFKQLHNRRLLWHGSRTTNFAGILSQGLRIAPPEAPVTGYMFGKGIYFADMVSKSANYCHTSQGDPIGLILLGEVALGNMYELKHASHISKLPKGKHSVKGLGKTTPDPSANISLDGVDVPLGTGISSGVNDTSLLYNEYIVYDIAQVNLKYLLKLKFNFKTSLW
Kind of experiment: PARP-1 enzymatic activity assay (Trevigen 96-well kit). It counts as biochemical. The following applies: 0.5 unit PARP-1, histone pre-coated plate, 60 min room temperature; read-out: The inhibitory effect of compounds on PARP-1 enzymatic activity (IC50). The protocol:
Briefly, PARP-1 catalyzes the NAD-dependent addition of poly(ADP-ribose) to its nuclear protein substrates such as histones. The assay kit measures the incorporation of biotynylated poly(ADP-ribose) onto histone proteins in a 96-well format.
To each well of histone pre-coated plate 10 μl of 5-fold concentrations of testing compounds or reference compound, 15 μl of PARP-1 enzyme (0.5 unit) and 25 μl reaction buffer were added and the plates were incubated at room temperature for 60 min. The plates were washed with 200 μl PBS with 0.1% Triton X-100 twice and then with 200 μl PBS twice. The residual liquid was removed by carefully tapping the plates on paper towels. Equal volumes of PeroxyGlow™ solution A and B were mixed and 100 μl of the solution was added to each well. The luminescence readings were read immediately in a Varioskan Flash plate reader (Thermo Fisher Scientific).

As for `O=C(c1cc(Cn2c3c(c(=O)[nH]c2=O)CCCC3)ccc1F)N1CCN(c2ncccn2)CC1` [Example 20], the IC50 came to 0.83 nM in experiment [1] (Homo sapiens, SW-620, 120 h); 17 nM in experiment [3] (Homo sapiens, CAPAN-1, 240 h); 2.6 nM on PARP-1 enzyme. In experiment [2] (Homo sapiens, T47D, 24 h), the EC50 worked out at 0.99 nM.

Regarding `O=C(c1cc(Cn2c3c(c(=O)[nH]c2=O)SCCC3)ccc1F)N1CCN(c2ncccn2)CC1` [Example 60], the half-inhibitory concentration (IC50) in experiment [1] (SW620 cells, medium containing 1.5 μg/ml MMS, 5 days (120 hours), MTT) is 7.6 nM; in experiment [3] (BRCA-2 deficient CAPAN-1 cells, 10 day assay, MTT), 761 nM. Moreover, in experiment [2] (T47D cells, 100 nM MMS, 24 hours, intracellular caspase-3 activity), the EC50 was found to be 30 nM.
